Species: Rattus norvegicus
Test: Open TG-GATES - Regimen: Single
Type: toxicity, organism-based, Sprague-Dawley
Parameters: regimen Single, gender Male, age 6 weeks
Details: in vivo, iv, route intravenous injection; for KIDNEY_L / KIDNEY_R / KIDNEY_TOTAL: tissue Kidney; for LIVER: tissue Liver
[1] = 10 mg/kg, 3 h, tissue Blood, dose level Low
[2] = 10 mg/kg, 3 h, tissue Plasma, dose level Low
[3] = 10 mg/kg, 6 h, tissue Blood, dose level Low
[4] = 10 mg/kg, 6 h, tissue Plasma, dose level Low
[5] = 10 mg/kg, 9 h, tissue Blood, dose level Low
[6] = 10 mg/kg, 9 h, tissue Plasma, dose level Low
[7] = 10 mg/kg, 24 h, tissue Blood, dose level Low
[8] = 10 mg/kg, 24 h, tissue Plasma, dose level Low

CARBOPLATIN was tested, and the Bas [1] was 0%, the Eos [1] was 1% and the Fbg [1] was 269.2 mg/dL. It also gave a Hb [1] of 12.9 g/dL, a Lym [1] of 80.4% and an MCH [1] of 21.1 pg. The MCHC [1] was 32%, the MCV [1] was 66 fL and the Mono [1] was 2.4%. It also gave a PT [1] of 15.4 s, a Plat [1] of 126.7 x10_4/uL and an RBC [1] of 612.6 x10_4/ul. The Ret [1] was 6.2%, the WBC [1] was 92.7 x10_2/uL and the KIDNEY_L (10 mg/kg, 3 h, dose level Low) was 1 g. It also gave a KIDNEY_R (10 mg/kg, 3 h, dose level Low) of 0.9 g, a KIDNEY_TOTAL (10 mg/kg, 3 h, dose level Low) of 1.9 g and an LIVER (10 mg/kg, 3 h, dose level Low) of 9.7 g. The ALP [2] was 1526 IU/L, the ALT [2] was 43.6 IU/L and the AST [2] was 85.4 IU/L. For the same sequence, the CRE [2] was 0.2 mg/dL, the DBIL [2] was 0.002 mg/dL and the GLC [2] was 185 mg/dL. For the same sequence, the IP [2] was 7.9 mg/dL, the K [2] was 3.9 meq/L and the LDH [2] was 228.2 IU/L. It also gave a PL [2] of 124.8 mg/dL, an RALB [2] of 2.9 g/dL and a TBIL [2] of 0.016 mg/dL. It also gave a TC [2] of 68.4 mg/dL, a TG [2] of 55.2 mg/dL and a TP [2] of 5.2 g/dL. For the same sequence, the gamma-GTP [2] was 1.2 IU/L, the TERMINAL_BW (10 mg/kg, 6 h, dose level Low) was 204.9 g and the APTT [3] was 24.2 s. It also gave a Bas [3] of 0%, an Eos [3] of 1% and a Fbg [3] of 286.8 mg/dL. It also gave a Ht [3] of 41.2%, a Lym [3] of 77.6% and an MCH [3] of 20.6 pg. For the same sequence, the MCHC [3] was 32.2%, the MCV [3] was 64 fL and the Mono [3] was 2.8%. For the same sequence, the Neu [3] was 17.8%, the PT [3] was 15.9 s and the Plat [3] was 131 x10_4/uL. It also gave an RBC [3] of 643.6 x10_4/ul, a Ret [3] of 6.3% and a WBC [3] of 115.8 x10_2/uL. The KIDNEY_L (10 mg/kg, 6 h, dose level Low) was 1 g, the KIDNEY_R (10 mg/kg, 6 h, dose level Low) was 1 g and the KIDNEY_TOTAL (10 mg/kg, 6 h, dose level Low) was 2 g. For the same sequence, the LIVER (10 mg/kg, 6 h, dose level Low) was 9.1 g, the ALP [4] was 1291.4 IU/L and the ALT [4] was 43.4 IU/L. It also gave a BUN [4] of 10 mg/dL, a CRE [4] of 0.2 mg/dL and a DBIL [4] of 0 mg/dL. The GLC [4] was 180.6 mg/dL, the IP [4] was 9.1 mg/dL and the K [4] was 4.3 meq/L. It also gave an LDH [4] of 174.2 IU/L, a PL [4] of 134.6 mg/dL and an RALB [4] of 3 g/dL. The TBIL [4] was 0.016 mg/dL, the TC [4] was 72.8 mg/dL and the TG [4] was 76.2 mg/dL. The TP [4] was 5.5 g/dL, the gamma-GTP [4] was 1.6 IU/L and the TERMINAL_BW (10 mg/kg, 9 h, dose level Low) was 197.5 g. It also gave an APTT [5] of 25.3 s, a Bas [5] of 0% and an Eos [5] of 1%. The Fbg [5] was 294.6 mg/dL, the Ht [5] was 40.2% and the Lym [5] was 73%. The MCHC [5] was 32.6%, the Mono [5] was 2.4% and the Neu [5] was 23.4%. For the same sequence, the PT [5] was 15.7 s, the Plat [5] was 131.4 x10_4/uL and the RBC [5] was 644.2 x10_4/ul. For the same sequence, the Ret [5] was 5.7%, the WBC [5] was 86.3 x10_2/uL and the KIDNEY_L (10 mg/kg, 9 h, dose level Low) was 0.9 g. It also gave a KIDNEY_R (10 mg/kg, 9 h, dose level Low) of 0.9 g, a KIDNEY_TOTAL (10 mg/kg, 9 h, dose level Low) of 1.8 g and an LIVER (10 mg/kg, 9 h, dose level Low) of 8 g. It also gave an ALP [6] of 1344 IU/L, an ALT [6] of 37.4 IU/L and an AST [6] of 77 IU/L. It also gave a BUN [6] of 11.2 mg/dL, a CRE [6] of 0.2 mg/dL and a DBIL [6] of 0 mg/dL. The GLC [6] was 177.8 mg/dL, the IP [6] was 9.3 mg/dL and the K [6] was 4.4 meq/L. The LDH [6] was 180.2 IU/L, the Na [6] was 140 meq/L and the PL [6] was 121 mg/dL. The RALB [6] was 2.9 g/dL, the TBIL [6] was 0.012 mg/dL and the TC [6] was 71.8 mg/dL. The TG [6] was 44.6 mg/dL, the TP [6] was 5.3 g/dL and the gamma-GTP [6] was 1.4 IU/L. The TERMINAL_BW (10 mg/kg, 24 h, dose level Low) was 204.3 g, the APTT [7] was 23.3 s and the Bas [7] was 0%. The Eos [7] was 0.6%, the Fbg [7] was 298.2 mg/dL and the Ht [7] was 40.6%. For the same sequence, the Lym [7] was 80.2%, the MCHC [7] was 32.1% and the MCV [7] was 63.8 fL. The Mono [7] was 2.8%, the PT [7] was 16.6 s and the Plat [7] was 122.3 x10_4/uL. For the same sequence, the RBC [7] was 637.8 x10_4/ul, the Ret [7] was 4.7% and the WBC [7] was 78.9 x10_2/uL. For the same sequence, the KIDNEY_L (10 mg/kg, 24 h, dose level Low) was 0.9 g, the KIDNEY_R (10 mg/kg, 24 h, dose level Low) was 1 g and the KIDNEY_TOTAL (10 mg/kg, 24 h, dose level Low) was 1.9 g. For the same sequence, the LIVER (10 mg/kg, 24 h, dose level Low) was 9 g, the ALP [8] was 1748.8 IU/L and the AST [8] was 69.8 IU/L. The BUN [8] was 15.6 mg/dL, the CRE [8] was 0.2 mg/dL and the DBIL [8] was 0 mg/dL. For the same sequence, the GLC [8] was 180.8 mg/dL, the IP [8] was 7.2 mg/dL and the K [8] was 4.5 meq/L. The LDH [8] was 208.6 IU/L, the PL [8] was 140.6 mg/dL and the RALB [8] was 3.1 g/dL. For the same sequence, the TBIL [8] was 0.006 mg/dL, the TC [8] was 74.2 mg/dL and the TG [8] was 75.6 mg/dL. It also gave a TP [8] of 5.5 g/dL, a gamma-GTP [8] of 1.6 IU/L and a TERMINAL_BW (30 mg/kg, 3 h, dose level Middle) of 205.5 g.

— ChEMBL document CHEMBL3885861, “Open TG-GATES”
